Common to all, as to type: cell-based
Data set [1] has as its system B16F10 melanoma cells. Briefly: MTT cytotoxicity in B16F10 melanoma cells. To be noted: concentration of 0 to 20 μM, 48 hrs, FIG. 1. Here is the method: B16F10 melanoma cells were incubated a dulbecco's modified eagle's media (DMEM) medium including 10% fetal bovine serum and then added in a 24-well plate with 2.5×10^4 cell/mL (the final volume of 1 mL). Fucosterol of 0.1, 1, 5, 10, and 20 μM was treated in the B16F10 melanoma cells, respectively. After treatment of 48 hrs, the medium was removed and a 0.5 mg/mL MTT solution was put in each well by 0.3 mL and the B16F10 melanoma cells were incubated in an incubator for 4 hrs. After 4 hrs, the MTT solution was removed and generated formazan was dissolved by adding dimetyl sulfoxide (DMSO) and then absorbance was measured at 570 nm and the result was illustrated in FIG. 1.

Data set [2] concerns the target T1, tyrosinase (Mus musculus, UniProt P11344).
T1 construct: endogenous in cells; host or cells: B16F10 melanoma cells (α-MSH stimulated)
T1 sequence (P11344 19-533): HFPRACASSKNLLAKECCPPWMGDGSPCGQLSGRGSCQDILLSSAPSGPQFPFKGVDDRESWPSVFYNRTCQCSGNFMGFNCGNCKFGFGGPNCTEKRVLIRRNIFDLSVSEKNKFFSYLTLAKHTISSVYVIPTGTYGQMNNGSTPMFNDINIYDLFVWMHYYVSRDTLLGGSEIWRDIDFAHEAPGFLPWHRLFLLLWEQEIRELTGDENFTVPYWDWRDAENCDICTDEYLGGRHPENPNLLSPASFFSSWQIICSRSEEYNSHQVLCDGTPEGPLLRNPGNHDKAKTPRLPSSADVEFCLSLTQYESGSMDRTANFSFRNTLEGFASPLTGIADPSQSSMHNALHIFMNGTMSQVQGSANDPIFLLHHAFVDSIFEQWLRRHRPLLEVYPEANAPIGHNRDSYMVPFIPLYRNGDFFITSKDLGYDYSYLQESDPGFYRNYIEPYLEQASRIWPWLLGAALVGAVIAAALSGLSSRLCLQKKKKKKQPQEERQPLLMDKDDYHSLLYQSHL
Description: Tyrosinase activity (L-DOPA, dopachrome) in α-MSH-stimulated B16F10 melanoma cells. To be noted: 200 nM α-MSH, fucosterol 5, 10, 20 μM, 48 hrs, P<0.01, FIG. 4. The procedure: B16F10 melanoma cells were incubated in a DMEM medium including 10% fetal bovine serum and then added in a 6-well plate with 2.5×10^5 cell/mL (the final volume of 3 mL). After being incubated for 24 hrs, the medium was removed and fucosterol which was dissolved in the DMEM medium including 200 nM α-MSH was treated at 5, 10, and 20 μM concentrations, respectively. After 48 hrs, the incubated medium was removed from the 6-well plate and PBS including 1% Triton X-100 was added to collect the cells. The collected cells were centrifuged for 10 min and 150 μL of a supernatant was put in a 96-well plate and 50 μL of L-3,4-dihydroxyphenylalanine (L-DOPA) was added. With respect to an amount of dopachrome generated after incubated for 30 min at 37° C., absorbance was measured at 475 nm by using a microplate reader (Versa max, Sunnyvale, Calif., USA). In this case, cells without the fucosterol were set to a control group and the tyrosinase activity degree was measured in the control group and cells treated with the fucosterol. According to Equation 2 below, the tyrosinase activity compared with the control group was calculated and the result was illustrated in FIG. 4. Tyrosinase activity (%) compared with control group=Reaction absorbance of each test material/Reaction absorbance of control group×100 [Equation 2]

Data set [3] concerns filaggrin. Description: Filaggrin mRNA expression (RT-PCR) in HaCaT human keratinocytes. Conditions: HaCaT cells, fucosterol 5, 10, 20 μM, 24 hrs, FIG. 11. The procedure: HaCaT human keratinocytes were incubated in a Dulbecco's Modified Eagle's Media (DMEM) medium including 10% fetal bovine serum and then put in a 6-well plate with 2×10^5 cell/ml (the final volume of 3 ml). After being incubated for 24 hrs, the medium was removed and fucosterol which was dissolved in the DMEM medium was treated at 5, 10, and 20 μM concentrations, respectively. After 24 hrs, the total RNA was collected by using a TRIzol reagent (Invitrogen, Carlsbad, Calif., USA) and reverse-transcribed and then a reverse transcription-polymerase chain reaction (RT-PCR) analysis was performed below. First, for cDNA synthesis, the RNA was reverse-transcribed by reverse transcriptase. The RT-PCR was performed by specific primers below and the result was illustrated in FIG. 11.

For data set [4], the system named is transglutaminase. Briefly: Transglutaminase protein expression (western blot) in HaCaT human keratinocytes. Conditions: HaCaT cells, fucosterol 5, 10, 20 μM, 24 hrs, FIG. 10. Here is the method: HaCaT human keratinocytes were incubated in a Dulbecco's Modified Eagle's Media (DMEM) medium including 10% fetal bovine serum and then put in a 6-well plate with 2×10^5 cell/ml (the final volume of 3 ml). After being incubated for 24 hrs, the medium was removed and fucosterol which was dissolved in the DMEM medium was treated at 5, 10, and 20 μM concentrations, respectively. After 24 hrs, the HaCaT human keratinocytes were lysed with a NP40 buffer solution including proteinase inhibitor cocktail. The protein amount extracted from the HaCaT human keratinocytes was quantified by using a Bradford method. The sample was boiled for 5 min and then the same amount of protein ([…]) was isolated by electrophoresis with 10% SDS-PAGE. The isolated proteins after electrophoresis were transferred to a nitrocellular membrane and western blot was performed. A primary antibody was reacted and the nitrocellular membrane was washed three times by using Tris-buffer saline tween20 (TBST) for 10 min. In this case, the kind and the dilution of the primary antibody used in the present invention is 1:1000. In a secondary antibody reaction, a secondary antibody was put in the membrane performing the primary antibody reaction and reacted for 2 hrs at room temperature. In this case, a dilution of the secondary antibody was 1:5000. […]

Regarding `C/C=C(\CC[C@@H](C)[C@H]1CC[C@H]2[C@@H]3CC=C4C[C@@H](O)CC[C@]4(C)[C@H]3CC[C@]12C)C(C)C` [fucosterol], the “cytotoxicity (MTT)” value in data set [1] is listed as “the cytotoxicity was not shown”. Besides, the “inhibitory effect on tyrosinase activity” value in data set [2] is “very excellent inhibitory effect”. Besides, the “mRNA expression of filaggrin” value in data set [3] is “increased”. In addition, the “protein expression of transglutaminase” value in data set [4] is on record as “increased”.

For the origin of these results see patent US9956157B2, “Composition containing fucosterol for skin whitening or moisturizing” (INDUSTRY-ACADEMIC COOPERATION FOUNDATION, YONSEI UNIVERSITY, priority 2014, dated 2018).
